Data: article PMC11522673 (Communications Biology, 2024)

Key:
PlasDRR(REPI) = test: LC-MS product formation, substrate-inhibition fit; assay type: biochemical, Papaver lasiothrix; settings: reduction; 500 μM NADPH; Bis-tris, optimized pH and temperature (Table S12)
PburDRR = test: LC-MS product formation, substrate-inhibition fit; assay type: biochemical, Papaver burseri; settings: reduction; 500 μM NADPH; Bis-tris, optimized pH and temperature (Table S12)
PglaDRR = test: LC-MS product formation, substrate-inhibition fit; assay type: biochemical, Papaver glaucum; settings: reduction; 500 μM NADPH; Bis-tris, optimized pH and temperature (Table S12)
PsomCOR = molecular target: T1, PsomCOR (Papaver somniferum, UniProt Q9SQ68); test: LC-MS product formation, Michaelis-Menten fit; settings: reduction; 1 mM NADPH; Bis-tris, optimized pH and temperature (Table S12)
T1 sequence (Q9SQ68 1-321): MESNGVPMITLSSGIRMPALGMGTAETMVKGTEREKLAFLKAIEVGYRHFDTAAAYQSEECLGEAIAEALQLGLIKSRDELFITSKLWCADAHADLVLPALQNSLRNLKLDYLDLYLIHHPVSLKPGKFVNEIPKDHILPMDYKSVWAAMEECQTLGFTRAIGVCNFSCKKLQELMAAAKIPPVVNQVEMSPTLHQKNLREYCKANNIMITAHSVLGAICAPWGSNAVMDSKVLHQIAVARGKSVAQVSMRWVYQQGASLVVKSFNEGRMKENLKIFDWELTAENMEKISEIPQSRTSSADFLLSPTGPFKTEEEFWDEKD

PapoCOR1 = test: LC-MS product formation, Michaelis-Menten fit; assay type: biochemical, Papaver apokrinomenon; settings: reduction; 1 mM NADPH; Bis-tris, optimized pH and temperature (Table S12)
PtriCOR3 = test: LC-MS product formation, Michaelis-Menten fit; assay type: biochemical, Papaver triniifolium; settings: reduction; 1 mM NADPH; Bis-tris, optimized pH and temperature (Table S12)
PglaCOR = test: LC-MS product formation, Michaelis-Menten fit; assay type: biochemical, Papaver glaucum; settings: reduction; 1 mM NADPH; Bis-tris, optimized pH and temperature (Table S12)
[1] = substrate: COc1ccc(CC2=[N+](C)CCc3cc(OC)c(O)cc32)cc1O; test: LC-MS product formation, substrate-inhibition fit; assay type: biochemical, Papaver somniferum; settings: reduction; 500 μM NADPH; Bis-tris, optimized pH and temperature (Table S12)

## COc1ccc(CC2=[N+](C)CCc3cc(OC)c(O)cc32)cc1O [1,2-dehydroreticuline]
PlasDRR(REPI)
  Km: 12.3 ± 2.2 µM
PburDRR
  Km: 5.5 ± 1 µM
PglaDRR
  Km: 16.4 ± 2.3 µM

## COc1ccc2c3c1O[C@H]1C(=O)C=C[C@H]4[C@@H](C2)N(C)CC[C@]314 [codeinone]
PsomCOR
  Km: 17.4 ± 1.6 µM
PapoCOR1
  Km: 117 ± 17.8 µM
PtriCOR3
  Km: 10 ± 0.9 µM
PglaCOR
  Km: 78.8 ± 5.6 µM

B1: PsomDRR(REPI) (Papaver somniferum) (protein)
chain: MESSGVPVITLGSGKVMPVLGMGTFEKVGKGSERERLAILKAIEVGYRYFDTAAAYETEEVLGEAIAEALQLGLVKSRDELFISSMLWCTDAHADRVLLALQNSLRNLKLEYVDLYMLPFPASLKPGKITMDIPEEDICRMDYRSVWAAMEECQNLGFTKSIGVSNFSCKKLQELMATANIPPAVNQVEMSPAFQQKKLREYCNANNILVSAISVLGSNGTPWGSNAVLGSEVLKKIAMAKGKSVAQVSMRWVYEQGASLVVKSFSEERLRENLNIFDWELTKEDHEKIGEIPQCRILSAYFLVSPNGPFKSQEELWDDEA
[1]
  Km: 7.3 ± 2.2 µM
  kcat: 5.36 ± 1.71 s⁻¹
  kcat/Km: 735000 M⁻¹ s⁻¹
